Source: US9242970B2 (ACTELION PHARMACEUTICALS LTD., priority 2010, dated 2016)

Experiments:
human orexin-1 receptor = human orexin-1 receptor (Homo sapiens (Human), UniProt O43613); test: In vitro assay: intracellular calcium measurements (FLIPR), antagonistic activity; type: cell-based; conditions: CHO cells, 3 nM orexin-A, compound incubation 120 min; marked values are geometric means of n = 2-6; read-out: IC50 OX1
human orexin-2 receptor = human orexin-2 receptor (Homo sapiens (Human), UniProt O43614); test: as above; type: cell-based; conditions: CHO cells, 3 nM orexin-A, compound incubation 120 min; marked values are geometric means of n = 2-6; read-out: IC50 OX2
Chain of human orexin-2 receptor (O43614 whole entry): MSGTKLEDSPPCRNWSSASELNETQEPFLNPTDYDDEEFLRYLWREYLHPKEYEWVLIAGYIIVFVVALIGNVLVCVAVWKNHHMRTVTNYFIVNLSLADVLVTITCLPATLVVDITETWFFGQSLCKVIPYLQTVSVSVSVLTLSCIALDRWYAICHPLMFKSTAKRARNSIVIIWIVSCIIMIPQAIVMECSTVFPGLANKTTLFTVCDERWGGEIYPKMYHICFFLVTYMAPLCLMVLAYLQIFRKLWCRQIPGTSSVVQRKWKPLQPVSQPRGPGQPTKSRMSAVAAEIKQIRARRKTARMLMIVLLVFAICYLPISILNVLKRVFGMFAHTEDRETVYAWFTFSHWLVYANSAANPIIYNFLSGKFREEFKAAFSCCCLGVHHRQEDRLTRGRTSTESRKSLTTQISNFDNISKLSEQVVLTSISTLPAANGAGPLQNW

Chain of human orexin-1 receptor (O43613 whole entry): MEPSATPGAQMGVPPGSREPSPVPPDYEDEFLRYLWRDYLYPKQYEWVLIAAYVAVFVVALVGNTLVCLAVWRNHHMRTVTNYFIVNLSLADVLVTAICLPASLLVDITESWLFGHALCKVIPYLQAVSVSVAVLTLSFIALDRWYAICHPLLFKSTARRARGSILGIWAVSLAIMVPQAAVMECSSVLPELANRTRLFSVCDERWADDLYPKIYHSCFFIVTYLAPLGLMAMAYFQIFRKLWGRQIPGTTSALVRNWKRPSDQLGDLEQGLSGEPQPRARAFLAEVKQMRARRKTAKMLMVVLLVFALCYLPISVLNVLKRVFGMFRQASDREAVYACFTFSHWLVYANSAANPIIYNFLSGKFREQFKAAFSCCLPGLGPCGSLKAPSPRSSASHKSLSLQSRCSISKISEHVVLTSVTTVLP

Row | Structure (SMILES) | IC50 (human orexin-1 receptor) [nM] | IC50 (human orexin-2 receptor) [nM]
1 | CCOc1cccc(F)c1C1CC(C)C(=O)N1Cc1ccc2ccccc2n1 (stereo not drawn) [Example 379, 5-(2-ethoxy-6-fluorophenyl)-3-methyl-1-(quinolin-2-ylmethyl)pyrrolidin-2-one] | 1000 | 71
2 | CCOc1cccc(F)c1C1CC(C)C(=O)N1Cc1ccnc(-c2ncc(C)s2)c1 (stereo not drawn) [Example 380, 5-(2-ethoxy-6-fluorophenyl)-3-methyl-1-((2-(5-methylthiazol-2-yl)pyridin-4-yl)methyl)pyrrolidin-2-one] | 131 | 2
3 | CCOc1cccc(F)c1C1CC(C)C(=O)N1Cc1ccnc(-n2cccn2)c1 (stereo not drawn) [Example 381, 1-((2-(1H-pyrazol-1-yl)pyridin-4-yl)methyl)-5-(2-ethoxy-6-fluorophenyl)-3-methylpyrrolidin-2-one] | 418 | 9
4 | CCOc1cccc(F)c1C1CC(C)C(=O)N1Cc1ccc2oc3ccccc3c2c1 (stereo not drawn) [Example 382, 1-(dibenzo[b,d]furan-2-ylmethyl)-5-(2-ethoxy-6-fluorophenyl)-3-methylpyrrolidin-2-one] | 88 | 2
5 | CCOc1cccc(F)c1C1CC(C)C(=O)N1Cc1csc(-c2ccc(C)cc2)n1 (stereo not drawn) [Example 383, 5-(2-ethoxy-6-fluorophenyl)-3-methyl-1-((2-(p-tolyl)thiazol-4-yl)methyl)pyrrolidin-2-one] | 234 | 9
6 | CCOc1cccc(F)c1C1CC(C)C(=O)N1Cc1cccc(-c2ncc(C)s2)c1 (stereo not drawn) [Example 384, 5-(2-ethoxy-6-fluorophenyl)-3-methyl-1-(3-(5-methylthiazol-2-yl)benzyl)pyrrolidin-2-one] | 111 | 2
7 | CCOc1cccc(F)c1C1CC(C)C(=O)N1Cc1cccc(-c2nc(Cl)cs2)c1 (stereo not drawn) [Example 385, 1-(3-(4-chlorothiazol-2-yl)benzyl)-5-(2-ethoxy-6-fluorophenyl)-3-methylpyrrolidin-2-one] | 64 | 2
8 | CCOc1cccc(F)c1C1CC(C)C(=O)N1Cc1ccnc(-c2nc(C)cs2)c1 (stereo not drawn) [Example 386, 5-(2-ethoxy-6-fluorophenyl)-3-methyl-1-((2-(4-methylthiazol-2-yl)pyridin-4-yl)methyl)pyrrolidin-2-one] | 39 | 2
9 | COc1cccc(OC)c1C1CC(C)C(=O)N1Cc1ccc2c(c1)c1ccccc1n2C (stereo not drawn) [Example 387, 5-(2,6-dimethoxyphenyl)-3-methyl-1-((9-methyl-9H-carbazol-3-yl)methyl)pyrrolidin-2-one] | 100 | 111
10 | COc1cccc(OC)c1C1CC(C)C(=O)N1Cc1cc2ccccc2n1C (stereo not drawn) [Example 388, 5-(2,6-dimethoxyphenyl)-3-methyl-1-((1-methyl-1H-indol-2-yl)methyl)pyrrolidin-2-one] | 83 | 132
11 | COc1cccc(OC)c1C1CC(C)C(=O)N1Cc1cc2cc(F)ccc2n1C (stereo not drawn) [Example 390, 5-(2,6-dimethoxyphenyl)-1-((5-fluoro-1-methyl-1H-indol-2-yl)methyl)-3-methylpyrrolidin-2-one] | 80 | 142
12 | COc1cccc(OC)c1C1CC(C)C(=O)N1Cc1ccc2c(ccn2C)c1 (stereo not drawn) [Example 391, 5-(2,6-dimethoxyphenyl)-3-methyl-1-((1-methyl-1H-indol-5-yl)methyl)pyrrolidin-2-one] | 175 | 529
13 | COc1cccc(OC)c1C1CC(C)C(=O)N1Cc1ccc2[nH]ccc2c1 (stereo not drawn) [Example 392, 1-((1H-indol-5-yl)methyl)-5-(2,6-dimethoxyphenyl)-3-methylpyrrolidin-2-one] | 810 | 1780
14 | COc1cccc(OC)c1C1CC(C)C(=O)N1Cc1ccc2sc(C)nc2c1 (stereo not drawn) [Example 393, 5-(2,6-dimethoxyphenyl)-3-methyl-1-((2-methylbenzo[d]thiazol-5-yl)methyl)pyrrolidin-2-one] | 32 | 121
15 | COc1cccc(OC)c1C1CC(C)C(=O)N1Cc1ccc(OC(C)C)cc1 (stereo not drawn) [Example 397, 5-(2,6-dimethoxyphenyl)-1-(4-isopropoxybenzyl)-3-methylpyrrolidin-2-one] | 265 | 370
16 | COc1cccc(OC)c1C1CC(C)C(=O)N1Cc1ccc(SC(F)(F)F)cc1 (stereo not drawn) [Example 398, 5-(2,6-dimethoxyphenyl)-3-methyl-1-(4-((trifluoromethyl)thio)benzyl)pyrrolidin-2-one] | 277 | 428
17 | COc1cccc(OC)c1C1CC(C)C(=O)N1Cc1ccc(OC(F)(F)C(F)F)cc1 (stereo not drawn) [Example 399, 5-(2,6-dimethoxyphenyl)-3-methyl-1-(4-(1,1,2,2-tetrafluoroethoxy)benzyl)pyrrolidin-2-one] | 172 | 124
18 | COc1cccc(OC)c1C1CC(C)C(=O)N1Cc1ccc(OC(F)(F)F)c(F)c1 (stereo not drawn) [Example 400, 5-(2,6-dimethoxyphenyl)-1-(3-fluoro-4-(trifluoromethoxy)benzyl)-3-methylpyrrolidin-2-one] | 151 | 183

Row | Structure (SMILES) | IC50 (human orexin-1 receptor) [nM] | IC50 (human orexin-2 receptor) [nM]
19 | COc1cccc(OC)c1C1CC(C)C(=O)N1Cc1ccc(OC(F)F)c(Cl)c1 (stereo not drawn) [Example 401, 1-(3-chloro-4-(difluoromethoxy)benzyl)-5-(2,6-dimethoxyphenyl)-3-methylpyrrolidin-2-one] | 164 | 155
20 | COc1cccc(OC)c1C1CC(C)C(=O)N1Cc1ccc(OC(F)F)cc1 (stereo not drawn) [Example 402, 1-(4-(difluoromethoxy)benzyl)-5-(2,6-dimethoxyphenyl)-3-methylpyrrolidin-2-one] | 271 | 621
21 | COc1ccc(OC(F)(F)F)cc1CN1C(=O)C(C)CC1c1c(OC)cccc1OC (stereo not drawn) [Example 403, 5-(2,6-dimethoxyphenyl)-1-(2-methoxy-5-(trifluoromethoxy)benzyl)-3-methylpyrrolidin-2-one] | 532 | 449
22 | COc1ccc(CN2C(=O)C(C)CC2c2c(OC)cccc2OC)cc1OC(F)(F)F (stereo not drawn) [Example 404, 5-(2,6-dimethoxyphenyl)-1-(4-methoxy-3-(trifluoromethoxy)benzyl)-3-methylpyrrolidin-2-one] | 965 | 513
23 | COc1cccc(OC)c1C1CC(C)C(=O)N1Cc1ccccc1OC(F)(F)F (stereo not drawn) [Example 405, 5-(2,6-dimethoxyphenyl)-3-methyl-1-(2-(trifluoromethoxy)benzyl)pyrrolidin-2-one] | 555 | 87
24 | COc1cccc(F)c1C1CC(F)(F)C(=O)N1Cc1ccc2oc3ccccc3c2c1 (stereo not drawn) [Example 410, 1-(dibenzo[b,d]furan-2-ylmethyl)-3,3-difluoro-5-(2-fluoro-6-methoxyphenyl)pyrrolidin-2-one] | 143 | 12
25 | CC(C)Oc1cccc(F)c1C1CC(F)(F)C(=O)N1Cc1ccc(OC(F)(F)F)cc1 (stereo not drawn) [Example 411, 3,3-difluoro-5-(2-fluoro-6-isopropoxyphenyl)-1-(4-(trifluoromethoxy)benzyl)pyrrolidin-2-one] | 1490 | 98
26 | CC(C)Oc1cccc(F)c1C1CC(C)C(=O)N1Cc1ccc(OC(F)(F)F)cc1 (stereo not drawn) [Example 413, 5-(2-fluoro-6-isopropoxyphenyl)-3-methyl-1-(4-(trifluoromethoxy)benzyl)pyrrolidin-2-one] | 1500 | 68
27 | CC1CC(c2c(F)cccc2OCCF)N(Cc2ccc(OC(F)(F)F)cc2)C1=O (stereo not drawn) [Example 414, 5-(2-fluoro-6-(2-fluoroethoxy)phenyl)-3-methyl-1-(4-(trifluoromethoxy)benzyl)pyrrolidin-2-one] | 1500 | 44
28 | CC1CC(c2c(F)cccc2OCCO)N(Cc2ccc(OC(F)(F)F)cc2)C1=O (stereo not drawn) [Example 416, 5-(2-fluoro-6-(2-hydroxyethoxy)phenyl)-3-meetthyl-1-(4-(trifluoromethoxy)benzyl)pyrrolidin-2-one] | 2940 | 59
29 | COc1cccc(OC)c1C1CC(C)C(=O)N1Cc1cccc(OCC(F)(F)F)c1 (stereo not drawn) [Example 417, 5-(2,6-dimethoxyphenyl)-3-methyl-1-(3-(2,2,2-trifluoroethoxy)benzyl)pyrrolidin-2-one] | 123 | 110
30 | COc1cccc(OC)c1C1CC(C)C(=O)N1Cc1ccc(OCC(F)(F)F)cc1 (stereo not drawn) [Example 418, 5-(2,6-dimethoxyphenyl)-3-methyl-1-(4-(2,2,2-trifluoroethoxy)benzyl)pyrrolidin-2-one] | 430 | 323
31 | COc1cccc(OC)c1C1CC(C)C(=O)N1Cc1cccc(OCC(F)F)c1 (stereo not drawn) [Example 419, 1-(3-(2,2-difluoroethoxy)benzyl)-5-(2,6-dimethoxyphenyl)-3-methylpyrrolidin-2-one] | 143 | 173
32 | COc1cccc(OC)c1C1CC(C)C(=O)N1Cc1ccc(OCC(F)F)cc1 (stereo not drawn) [Example 420, 1-(4-(2,2-difluoroethoxy)benzyl)-5-(2,6-dimethoxyphenyl)-3-methylpyrrolidin-2-one] | 586 | 549
33 | COc1cccc(OC)c1C1CC(C)C(=O)N1Cc1cccc(OCCF)c1 (stereo not drawn) [Example 421, 5-(2,6-dimethoxyphenyl)-1-(3-(2-fluoroethoxy)benzyl)-3-methylpyrrolidin-2-one] | 498 | 237
34 | COc1cccc(OC)c1C1CC(C)C(=O)N1Cc1ccc(OCCF)cc1 (stereo not drawn) [Example 422, 5-(2,6-dimethoxyphenyl)-1-(4-(2-fluoroethoxy)benzyl)-3-methylpyrrolidin-2-one] | 863 | 1040
35 | COc1cccc(OC)c1C1CC(C)C(=O)N1Cc1cccc(OC(C)C)c1 (stereo not drawn) [Example 423, 5-(2,6-dimethoxyphenyl)-1-(3-isopropoxybenzyl)-3-methylpyrrolidin-2-one] | 101 | 93
36 | COc1cccc(OC)c1C1CC(C)C(=O)N1Cc1cccc(OC(F)(F)C(F)F)c1 (stereo not drawn) [Example 424, 5-(2,6-dimethoxyphenyl)-3-methyl-1-(3-(1,1,2,2-tetrafluoroethoxy)benzyl)pyrrolidin-2-one] | 27 | 13
